Assay results as given in PMC6277767, “Broad and Region-Specific Impacts of the Synthetic Cannabinoid CP 55,940 in Adolescent and Adult Female Mouse Brains” (Frontiers in Molecular Neuroscience, 2018).

System: CD1 female mouse brain lipidome
Assay: Brain-region lipid levels (HPLC/MS/MS lipidomics) 2 h after single i.p. 3 mg/kg CP 55,940 vs vehicle
Assay type: in vivo
Set-up: N-arachidonoyl phenylalanine level, Mean / N-stearoyl tryptophan level, Mean / N-stearoyl proline level, Mean / N-stearoyl leucine level, Mean / N-stearoyl phenylalanine level, Mean / N-stearoyl serine level, Mean / N-stearoyl methionine level, Mean: unit: moles per gram
Details: thalamus, 3 mg/kg CP 55,940
Method: The Bloomington Institutional Animal Care and Use Committee of Indiana University reviewed and approved the animal procedures. Female mice from the CD1 strain were utilized to match our study examining THC’s effects on the brain lipidome ([Leishman et al., 2018]). Mice were given a single i.p. injection of either 3 mg/kg CP or 1:1:18 cremophor:ethanol:saline vehicle (please refer to the section “3 mg/kg CP Is Relevant for Synthetic Cannabinoid Abuse and Has Stronger Effects on the Female Mouse Brain Lipidome During Adolescence” for a justification of dose and use of female mice). Three different age groups were given injections: PND 35 and PND 50 adolescents, and adult mice (PND 113). At least eight mice in each age group received CP and at least eight received vehicle. Matching the THC study time course ([Leishman et al., 2018]), mice were sacrificed via rapid decapitation 2 h after injection. Brains were immediately removed and flash-frozen in liquid nitrogen, and then stored at -80°C until dissections were performed. Brains were dissected on an ice-cold dissection plate into the following regions: STR, HIPP, CER, THAL, CTX, HYP, MID, and STEM. These abbreviations for these brain areas will be used exclusively when discussing the results generated by these specific dissections. Each dissected area was immediately placed in liquid nitrogen and then stored at -80°C until used for lipid extraction.
Tissue extracts were performed as previously described ([Bradshaw et al., 2006]; [Stuart et al., 2013]; [Raboune et al., 2014]; [Leishman et al., 2016a],[b], [2017], [2018]). First, samples were shock frozen in liquid nitrogen, weighed, and transferred to a centrifuge tube. The mass of the largest sample was multiplied by 50 to determine how many milliliters of HPLC-grade methanol (Fisher, Fair Lawn, NJ, United States) to add. Then, samples were spiked with 500 pmol deuterium-labeled NAGly (d8NAGly; Cayman Chemical, Ann Arbor, MI, United States). Samples were placed on ice in darkness for 2 h then individually homogenized and centrifuged at 19,000 × g for 20 min at 20°C. Supernatants were diluted with HPLC water (purified in house) to make a solution of 75% water, 25% supernatant. Lipids were partially purified on C18 solid phase extraction columns (Agilent, Palo Alto, CA, United States). A series of four elutions with 1.5 mL of 60%, 75%, 85%, and 100% methanol were collected ([Stuart et al., 2013]; [Leishman et al., 2016a],[b], [2018]).
As previously described ([Bradshaw et al., 2006]; [Tan et al., 2006]; [Smoum et al., 2010]; [Stuart et al., 2013]; [Tortoriello et al., 2013]; [Raboune et al., 2014]; [Leishman et al., 2016a],[b], [2017], [2018]), samples were analyzed using an Applied Biosystems API 3000 triple quadrupole mass spectrometer with electrospray ionization (Foster City, CA, United States). Using an Agilent XDB-C18 reversed phase analytical column and optimized mobile phase gradients, 20 μL from each elution were chromatographed. Two Shimadzu 10ADvp pumps (Columbia, MD, United States) provided the pressure for gradient elution. Mobile phase A: 20% methanol, 80% water (v/v) and 1 mM ammonium acetate (Sigma, St. Louis, MO, United States). Mobile phase B: 100% methanol, 1 mM ammonium acetate. Every method run began with 0% mobile phase B, reached 100% mobile phase B flowing at 0.2 mL/min, and gradually returned to 0% mobile phase B.
This screening library will be referred to as the lipidome when discussing data from this study. HPLC/MS/MS data were analyzed using Analyst software (Applied Biosystems) ([Bradshaw et al., 2006]; [Tan et al., 2006]; [Stuart et al., 2013]; [Tortoriello et al., 2013]; [Raboune et al., 2014]; [Leishman et al., 2016a],[b], [2017], [2018]). Chromatograms (Supplementary Figure 3) were generated by determining the retention time of analytes from the analytical column with a [M-1] or [M+1] parent peak and a fragmentation peak corresponding to the programmed values. […]

## CCCCCCC(C)(C)c1ccc([C@@H]2C[C@H](O)CC[C@H]2CCCO)c(O)c1 [CP 55,940]
PND 35
  N-oleoyl glycine Direction (relative to Veh): ↓
  N-oleoyl glycine Magnitude (x Veh level): 0.91 x Veh level
  N-oleoyl leucine Direction (relative to Veh): ↑
  N-oleoyl leucine Magnitude (x Veh level): 1.27 x Veh level
  N-oleoyl valine Direction (relative to Veh): ↑
  N-oleoyl valine Magnitude (x Veh level): 1.44 x Veh level
  N-palmitoyl GABA Direction (relative to Veh): ↑
  N-palmitoyl GABA Magnitude (x Veh level): 1.21 x Veh level
  N-palmitoyl leucine, Direction (relative to Veh): ↑
  N-palmitoyl leucine, Magnitude (x Veh level): 1.42 x Veh level
  N-palmitoyl phenylalanine Direction (relative to Veh): ↑
  N-palmitoyl phenylalanine Magnitude (x Veh level): 1.35 x Veh level
  N-palmitoyl tyrosine Magnitude (x Veh level): 1.34 x Veh level
  N-palmitoyl tyrosine, Direction (relative to Veh): ↑
  N-palmitoyl valine Direction (relative to Veh): ↑
  N-palmitoyl valine Magnitude (x Veh level): 1.79 x Veh level
  N-stearoyl serine Direction (relative to Veh): ↓
  N-stearoyl serine Magnitude (x Veh level): 0.83 x Veh level
  N-stearoyl tyrosine Direction (relative to Veh): ↓
  N-stearoyl tyrosine Magnitude (x Veh level): 0.81 x Veh level
  N-stearoyl valine Direction (relative to Veh): ↑
  N-stearoyl valine Magnitude (x Veh level): 1.26 x Veh level
  PGE2 Direction (relative to Veh): ↑
  PGE2 Magnitude (x Veh level): 1.16 x Veh level
  phosphoLEA Direction (relative to Veh): ↑
  phosphoLEA Magnitude (x Veh level): 1.24 x Veh level
PND 35 adolescent female mice
  2-arachidonoyl glycerol level, Mean: 3.59E-10
  2-linoleoyl glycerol level, Mean: 1.52E-10
  2-oleoyl glycerol level, Mean: 1.68E-09
  2-palmitoyl glycerol level, Mean: 5.34E-10
  6-ketoPGF1α level, Mean: 1.42E-11
  Arachidonic acid level, Mean: 2.14E-09
  Linoleic acid level, Mean: 5.7E-10
  N- stearoyl valine level, Mean: 1.07E-12
  N-arachidonoyl GABA level, Mean: 2.62E-11
  N-arachidonoyl alanine level, Mean: 1.02E-11
  N-arachidonoyl dopamine level, Mean: BDL
  N-arachidonoyl ethanolamine level, Mean: 2.8E-11
  N-arachidonoyl glycine level, Mean: 4.62E-11
  N-arachidonoyl phenylalanine level, Mean: 1.31E-12
  N-arachidonoyl serine level, Mean: 6.28E-12
  N-arachidonoyl taurine level, Mean: 5.99E-11
  N-arachidonoyl tryptophan level, Mean: BDL
  N-arachidonoyl tyrosine level, Mean: 7.9E-13
  N-docosahexaenoyl GABA level, Mean: 2.9E-12
  N-docosahexaenoyl alanine level, Mean: 4.07E-12
  N-docosahexaenoyl ethanolamine level, Mean: 4.03E-11
  N-docosahexaenoyl glycine level, Mean: 1.76E-11
  N-docosahexaenoyl leucine level, Mean: 8.15E-13
  N-docosahexaenoyl phenylalanine level, Mean: 1.14E-12
  N-docosahexaenoyl proline level, Mean: BDL
  N-docosahexaenoyl serine level, Mean: 2.59E-11
  N-docosahexaenoyl tyrosine level, Mean: 7.13E-13
  N-docosahexaenoyl valine level, Mean: 2E-13
  N-linoleoyl GABA level, Mean: 9.8E-13
  N-linoleoyl alanine level, Mean: 1.66E-12
  N-linoleoyl ethanolamine level, Mean: 5.07E-11
  N-linoleoyl glycine level, Mean: 4.36E-12
  N-linoleoyl leucine level, Mean: 3.45E-13
  N-linoleoyl methionine level, Mean: BDL
  N-linoleoyl proline level, Mean: BDL
  N-linoleoyl serine level, Mean: 5.67E-11
  N-linoleoyl tryptophan level, Mean: BDL
  N-linoleoyl tyrosine level, Mean: BDL
  N-nervonoyl valine level, Mean: BDL
  N-oleoyl GABA level, Mean: 5.58E-12
  N-oleoyl alanine level, Mean: 7.79E-12
  N-oleoyl dopamine level, Mean: BDL
  N-oleoyl ethanolamine level, Mean: 1.71E-10
  N-oleoyl glycine level, Mean: 2.36E-11
  N-oleoyl leucine level, Mean: 2.09E-12
  N-oleoyl methionine level, Mean: 1.17E-12
  N-oleoyl phenylalanine level, Mean: 1.2E-12
  N-oleoyl serine level, Mean: 3.24E-10
  N-oleoyl tryptophan level, Mean: 1.87E-13
  N-oleoyl tyrosine level, Mean: 4.87E-13
  N-oleoyl valine level, Mean: 9.01E-13
  N-palmitoyl GABA level, Mean: 1.41E-11
  N-palmitoyl alanine level, Mean: 1.21E-11
  N-palmitoyl ethanolamine level, Mean: 8.69E-11
  N-palmitoyl glycine level, Mean: 4.99E-11
  N-palmitoyl leucine level, Mean: 4.1E-12
  N-palmitoyl methionine level, Mean: 1.84E-12
  N-palmitoyl phenylalanine level, Mean: 2.75E-12
  N-palmitoyl proline level, Mean: 1.05E-12
  N-palmitoyl serine level, Mean: 1.05E-10
  N-palmitoyl tryptophan level, Mean: 4.31E-13
  N-palmitoyl tyrosine level, Mean: 1.31E-12
  N-palmitoyl valine level, Mean: 2.65E-12
  N-stearoyl GABA level, Mean: 1.05E-11
  N-stearoyl alanine level, Mean: 1.24E-11
  N-stearoyl ethanolamine level, Mean: 1.97E-11
  N-stearoyl glycine level, Mean: 2.74E-11
  N-stearoyl leucine level, Mean: 1.66E-12
  N-stearoyl methionine level, Mean: 1.9E-12
  N-stearoyl phenylalanine level, Mean: 2.22E-12
  N-stearoyl proline level, Mean: 5.08E-13
  N-stearoyl serine level, Mean: 3.19E-11
  N-stearoyl tryptophan level, Mean: 1.26E-12
  N-stearoyl tyrosine level, Mean: 1.15E-13
  Oleic acid level, Mean: 1.67E-09
  PGE2 level, Mean: 6.31E-10
  PhosphoLEA level, Mean: 2.93E-11
